These results are taken from patent US20260049089A1, “KRAS INHIBITOR COMPOUND” (SHANGHAI APEIRON THERAPEUTICS COMPANY LIMITED, priority 2022, published 2026).

Where “and” joins values, the source holds several entries; their conditions need not be identical. Equal entries are not always repeated. Where two headings read alike, the source gives them in different places.

What all share (type): cell-based
For one experiment, the system named is pERK in AGS cells. Put plainly: ERK phosphorylation cell assay, AGS. Conditions: 3 hours compound incubation, read-out: pERK AGS_IC50. As to the method:
(§1) • Day 1: AGS cells were seeded into a 384-well cell culture plate and incubated overnight at 37° C. with 5% CO2 in a cell culture incubator. • Day 2: Compounds were added to the plate using an Echo550 liquid handler, followed by incubation at 37° C. with 5% CO2 in a cell culture incubator for 3 hours. Subsequently, the cells were fixed with paraformaldehyde, permeabilized with methanol, and blocked with blocking buffer. A primary antibody mixture (rabbit anti-pERK, mouse anti-GAPDH) was added, and the plate was incubated overnight at 4° C. • Day 3: The primary antibodies were removed, and a secondary antibody mixture (goat anti-rabbit 800CW, goat anti-mouse 680RD) was added. The plate was incubated at room temperature in the dark. After three washes with PBST, the plate was inverted and centrifuged for 1 minute. Fluorescence signal values were read using an Odyssey CLx imaging system.
(§2) [formula] • Negative control: DMSO • Positive control: 10 μM Reference • Fitted using XLFit 5.0 with the following parameters:
(§3) [formula] • X: Log of compound concentration • Y: Mean relative expression levels of p-ERK across replicates

A further experiment relates to pERK in AsPC-1 cells. Put plainly: ERK phosphorylation cell assay, AsPC-1. Conditions: read-out: pERK AsPC-1_IC50. On the procedure: [Worded in the source for another cell line; this cell line is reported under the same test.] as §1, §2, §3
In a further experiment the test system is AGS cells. Put plainly: 3D cell proliferation assay (CellTiter-Glo 3D), AGS. Conditions: 5 days, read-out: 3D Proliferation Inhibition AGS_IC50. As to the method:
(§4) Using a nanoliter liquid handling system (LABCYTE, P-0200), the diluted test compounds were added to a 384-well low-adsorption cell culture plate. Cells were seeded into the wells, and the plate was placed in an incubator at 37° C. with 5% CO2. After co-incubating the compounds and cells for 5 days, CellTiter-Glo® 3D reagent was added. Luminescence values were measured using an EnVision Multilabel Plate Reader (luminescence is proportional to the ATP content in the system, and ATP content directly reflects the number of viable cells). Finally, the IC50 values (half-maximal inhibitory concentrations) of the compounds were determined using non-linear fitting equations in XLFit software with the following parameters: […]
(§5) X: Logarithm of compound concentration • Y: Inhibition rate (%)
(§6) [formula] • Negative control: DMSO • Positive control: Medium only
On the technique in general: Cellular ATP, detected with luciferase, serves as a proxy for viable cell number.

A further experiment deals with AsPC-1 cells. Description: 3D cell proliferation assay (CellTiter-Glo 3D), AsPC-1. Conditions: 5 days, read-out: 3D Proliferation Inhibition AsPC-1_IC50. On the procedure:
as §4, §5, §6

Setting [1] is: Homo sapiens, ASPC1, AsPC-1 cells.

Take `C[C@@]1(O)CCCN(c2nc(OC[C@@]34CCCN3C[C@H](F)C4)nc3c(F)c4c(cc23)NCCCCCc2c(F)ccc3cc(O)cc-4c23)C1` [Example 16, 3,15-difluoro-13-(((2R,7aS)-2-fluorotetrahydro-1H-pyrrolidin-7a(5H)-yl)methoxy)-11-((R)-3-hydroxy-3-methylpiperidin-1-yl)-4,5,6,7,8,9-hexahydronaphthol[1′,8′:4,5,6][1]azacycloundecane [2,3-g]quinazolin-17-ol]: the IC50 with pERK in AGS cells (Homo sapiens, AGS, 3 h) worked out at 31 nM; in the experiment on pERK in AsPC-1 cells (setting [1]), 102 nM; in the experiment with AGS cells (Homo sapiens, AGS, 120 h) it was 83 nM; in the experiment with AsPC-1 cells (Homo sapiens, ASPC1, 120 h) it was 288 nM.

`C=C1CN2CCC[C@@]2(COc2nc(N3CCC[C@@](C)(O)C3)c3cc4c(c(F)c3n2)-c2cc(O)cc3ccc(F)c(c23)CCOCCN4)C1` (single isomer, unassigned) [Example 42D]: the IC50 came to 2.2 nM with pERK in AGS cells, 12 nM in the experiment on pERK in AsPC-1 cells (AsPC-1 cells), 5.9 nM in the experiment on AGS cells and 39 nM in the experiment on AsPC-1 cells.

Turning to `CN1CCOCCc2c(F)ccc3cc(O)cc(c23)-c2c1cc1c(N3CCC[C@@](C)(O)C3)nc(OC[C@@]34CCCN3C[C@H](F)C4)nc1c2F` [Example 47, 3,15-difluoro-13-(((2R,7aS)-2-fluorotetrahydro-1H-pyrazin-7a(5H)-yl)methoxy)-11-((R)-3-hydroxy-3-methylpiperidin-1-yl)-9-methyl-4,5,8,9-tetrahydro-7H-naphtho[1′,8′:7,8,9][1]oxa[4]azacycloundeca[5,6-g]quinazoline-17-ol], the IC50 in the experiment on pERK in AGS cells is 2.7 nM; with pERK in AsPC-1 cells (AsPC-1 cells), 7.9 nM; in the experiment with AGS cells, 8.8 nM; with AsPC-1 cells, 28 nM.

As to `C[C@@]1(O)CCCN(c2nc(OCC34CCCN3CCC4)nc3c(F)c4c(cc23)NCCCCCc2c(F)ccc3cc(O)cc-4c23)C1` (single isomer, unassigned) [Example 21A], the IC50 with pERK in AGS cells is 93 nM and 99 nM; with pERK in AsPC-1 cells (AsPC-1 cells), 938 nM and 721 nM; in the experiment with AGS cells (Homo sapiens, AGS, 120 h), 226 nM; with AsPC-1 cells (Homo sapiens, ASPC1, 120 h) it was 2630 nM.

With `Oc1cc2c3c(c(F)ccc3c1)CCCCCNc1cc3c(N4CC5CCC(C4)N5)nc(OC[C@@]45CCCN4C[C@H](F)C5)nc3c(F)c1-2` [Example 5, 11-((1R,5S)-3,8-Diazabicyclo[3.2.1]octane-3-yl)-3,15-difluoro-13-(((2R,7aS)-2-fluorotetrahydro-1H-pyrrolin-7a(5H)-yl)methoxy)-4,5,6,7,8,9-hexahydro-naphtho[1′,8′:4,5,6][1]azacycloundecino[2,3-g]quinazolin-17-ol], the IC50 stood at 12 nM with pERK in AGS cells (Homo sapiens, AGS, 3 h); 41 nM in the experiment with pERK in AsPC-1 cells (setting [1]); 128 nM in the experiment with AGS cells (Homo sapiens, AGS, 120 h); 196 nM with AsPC-1 cells (Homo sapiens, ASPC1, 120 h).

With `Oc1cc2c3c(c(F)ccc3c1)CCCCCCNc1cc3c(N4CC5CCC(C4)N5)nc(OC[C@@]45CCCN4C[C@H](F)C5)nc3c(F)c1-2` [Example 8], the IC50 in the experiment on pERK in AGS cells (Homo sapiens, AGS, 3 h) is 73 nM; in the experiment with pERK in AsPC-1 cells (setting [1]), 278 nM; in the experiment on AGS cells (Homo sapiens, AGS, 120 h), 255 nM; in the experiment on AsPC-1 cells (Homo sapiens, ASPC1, 120 h) it was 682 nM.

With `C[C@@]1(O)CCCN(c2nc(OC[C@@]34CCCN3C[C@H](F)C4)nc3c(F)c4c(cc23)NCCOCCc2c(F)ccc3cccc-4c23)C1` (single isomer, unassigned) [Example 52B], the IC50 in the experiment on pERK in AGS cells was greater than 10000 nM; in the experiment with pERK in AsPC-1 cells (AsPC-1 cells), greater than 10000 nM; in the experiment with AGS cells (Homo sapiens, AGS, 120 h), greater than 10000 nM; in the experiment on AsPC-1 cells (Homo sapiens, ASPC1, 120 h) it was greater than 10000 nM.

In the case of `C=C1CN2CCCC2(COc2nc(N3CCC[C@@](C)(O)C3)c3cc4c(c(F)c3n2)-c2cc(O)cc3ccc(F)c(c23)CCOCCN4C)C1` (stereo partly drawn) [Example 48], the IC50 is 3.3 nM in the experiment with pERK in AGS cells (Homo sapiens, AGS, 3 h); 17 nM in the experiment on pERK in AsPC-1 cells (setting [1]); 7.4 nM in the experiment on AGS cells (Homo sapiens, AGS, 120 h); 42 nM in the experiment with AsPC-1 cells (Homo sapiens, ASPC1, 120 h).

On to `C[C@@]1(O)CCCN(c2nc(OCC3(N4CCOCC4)CC3)nc3c(F)c4c(cc23)NCCCCCc2c(F)ccc3cc(O)cc-4c23)C1` (single isomer, unassigned) [Example 33B], for which the IC50 with pERK in AGS cells is greater than 10000 nM; in the experiment with pERK in AsPC-1 cells (AsPC-1 cells), greater than 10000 nM; in the experiment on AGS cells it was 3080 nM; with AsPC-1 cells it was 4670 nM.

As to `C=C1CN2CCCC2(COc2nc(N3CCC[C@@](C)(O)C3)c3cc4c(c(F)c3n2)-c2cc(O)cc3ccc(F)c(c23)CCCCCN4C)C1` (single isomer, unassigned) [Example 22B], the IC50 with pERK in AGS cells stood at 430 nM; in the experiment with pERK in AsPC-1 cells (AsPC-1 cells), 898 nM; in the experiment with AGS cells it was 553 nM; with AsPC-1 cells it was 1790 nM.

In the case of `CN1CCC[C@H]1COc1nc(N2CCC[C@@](C)(O)C2)c2cc3c(c(F)c2n1)-c1cc(O)cc2ccc(F)c(c12)CCCCCN3` (single isomer, unassigned) [Example 28A], the IC50 in the experiment on pERK in AGS cells came out at 194 nM; in the experiment with pERK in AsPC-1 cells (AsPC-1 cells) it was 776 nM; with AGS cells it was 430 nM; in the experiment with AsPC-1 cells it was 1760 nM.

`C[C@@]1(O)CCCN(c2nc(OCC3(CN4CCOCC4)CC3)nc3c(F)c4c(cc23)NCCCCCc2c(F)ccc3cc(O)cc-4c23)C1` [Example 26]: the IC50 was 74 nM in the experiment with pERK in AGS cells; 51 nM in the experiment with pERK in AGS cells (Homo sapiens, AGS, 3 h); 234 nM in the experiment on pERK in AsPC-1 cells (AsPC-1 cells); 218 nM in the experiment with pERK in AsPC-1 cells (setting [1]); 393 nM in the experiment with AGS cells (Homo sapiens, AGS, 120 h); 607 nM in the experiment on AsPC-1 cells (Homo sapiens, ASPC1, 120 h).

Regarding `C[C@@]1(O)CCCN(c2nc(OCC34CCCN3CC3(CC3)C4)nc3c(F)c4c(cc23)NCCCCCc2c(F)ccc3cc(O)cc-4c23)C1` (stereo partly drawn) [Example 23], the IC50 in the experiment with pERK in AGS cells worked out at 157 nM; in the experiment on pERK in AGS cells (Homo sapiens, AGS, 3 h), 135 nM; with pERK in AsPC-1 cells (AsPC-1 cells), 754 nM; with pERK in AsPC-1 cells (setting [1]) it was 728 nM; in the experiment with AGS cells (Homo sapiens, AGS, 120 h), 346 nM; with AsPC-1 cells (Homo sapiens, ASPC1, 120 h), 2100 nM.

Take `C[C@@]1(O)CCCN(c2nc(OCC34CCCN3CC(=CF)C4)nc3c(F)c4c(cc23)NCCCCCc2c(F)ccc3cc(O)cc-4c23)C1` (stereo partly drawn) [Example 30]: the IC50 in the experiment on pERK in AGS cells (Homo sapiens, AGS, 3 h) came to 55 nM; in the experiment on pERK in AsPC-1 cells (setting [1]) it was 171 nM; in the experiment with AGS cells (Homo sapiens, AGS, 120 h), 177 nM; in the experiment with AsPC-1 cells (Homo sapiens, ASPC1, 120 h), 534 nM.

Take “3,15-difluoro-13-((2R,7aS)-2-fluorotetrahydro-1H-pyrazin-7a(5H)-yl)methoxy)-11-((R)-3-hydroxy-3-methylpiperidin-1-yl)-4,5,8,9-tetrahydro-7H-naphtho[1′,8′:7,8,9][1]oxa[4]azacycloundeca[5,6-g]quinazoline-17-ol [Example 43A]”: the IC50 in the experiment on pERK in AGS cells is 4.6 nM; in the experiment with pERK in AsPC-1 cells (AsPC-1 cells) it was 15 nM; in the experiment on AGS cells, 22 nM and 24 nM; in the experiment on AsPC-1 cells, 60 nM and 55 nM.

Take `C=C1CN2CCC[C@@]2(COc2nc(N3CCC[C@@](C)(O)C3)c3cc4c(c(F)c3n2)-c2cccc3ccc(F)c(c23)CCOCCN4C)C1` [Example 54, (R)-1-(3,15-difluoro-9-methyl-13-(((S)-2-methylenetetrahydro-1H-pyrazin-7a(5H)-yl)methoxy)-4,5,8,9-tetrahydro-7H-naphtho[1′,8′:7,8,9][1]oxa[4]azacycloundeca[5,6-g]quinazoline-11-yl)-3-methylpiperidin-3-ol]: the IC50 with pERK in AGS cells (Homo sapiens, AGS, 3 h) is 659 nM; with pERK in AsPC-1 cells (setting [1]), 892 nM; with AGS cells (Homo sapiens, AGS, 120 h), 885 nM; in the experiment on AsPC-1 cells (Homo sapiens, ASPC1, 120 h), 1260 nM.

`C=C1CN2CCC[C@@]2(COc2nc(N3CCC[C@@](C)(O)C3)c3cc4c(c(F)c3n2)-c2cc(N)cc3ccc(F)c(c23)CCOCCN4C)C1` [Example 56, (R)-1-(17-amino-3,15-difluoro-9-methyl-13-(((S)-2-methylenetetrahydro-1H-pyrazin-7a(5H)-yl)methoxy)-4,5,8,9-tetrahydro-7H-naphtho[1′,8′:7,8,9][1]oxa[4]azacycloundeca[5,6-g]quinazoline-11-yl)-3-methylpiperidin-3-ol]: the IC50 in the experiment on pERK in AGS cells (Homo sapiens, AGS, 3 h) amounted to 206 nM; in the experiment with pERK in AsPC-1 cells (setting [1]), 707 nM; in the experiment with AGS cells (Homo sapiens, AGS, 120 h), 668 nM; in the experiment on AsPC-1 cells (Homo sapiens, ASPC1, 120 h) it was 1460 nM.
